Source: patent US8921362B2, “6,7-dialkoxy quinazoline derivatives and methods of treating drug resistant and other tumors” (Natco Pharma Limited, priority 2008, dated 2014)

Tests used:
ERBB2 = ERBB2 (Homo sapiens, UniProt P04626); experiment: KinomeScan; assay type: binding; set-up: purchased Ambit Biosciences Corp; host or cells: T7 phage in E. coli host derived from BL21; conditions: read-out: % Ctrl @ 10000 nM
Description: (§1) Kinase assays: Assays were performed as described in Fabian et al. (2005) Nature Biotechnology, vol. 23, p. 329. Kinase-tagged T7 phage strains were grown in parallel in 24 or 96-well blocks in an E. coli host derived from the BL21 strain. E. coli were grown to log-phase and infected with T7 phage from a frozen stock (multiplicity of infection ˜0.1) and incubated with shaking at 32° C. until lysis (−90 minutes). The lysates were centrifuged and filtered to remove cell debris. […] The liganded beads were blocked with excess biotin and washed with blocking buffer (SeaBlock (Pierce), 1% BSA, 0.05% Tween 20, 1 mM DTT) to remove unbound ligand and to reduce non-specific phage binding.
(§2) Test compounds were prepared as 40× stocks in DMSO and diluted into the aqueous environment. 2.5% DMSO was added to control assays lacking a test compound. All reactions were performed in polystyrene 96-well plates that had been pretreated with blocking buffer in a final volume of 0.04 ml. […] The phage titer in the eluates was measured by quantitative PCR.

ERBB4 = ERBB4 (Homo sapiens, UniProt Q15303); experiment: KinomeScan; assay type: binding; set-up: purchased Ambit Biosciences Corp; host or cells: T7 phage in E. coli host derived from BL21; conditions: read-out: % Ctrl @ 10000 nM
Description: as §1, §2

hERG = hERG (Homo sapiens, UniProt Q12809); experiment: hERG Ikr (tail) current, whole cell patch-clamp in CHO cells; conditions: 10 μM
EPHB1 = target: T1, EPHB1 (Homo sapiens, UniProt P54762); experiment: KinomeScan; assay type: binding; conditions: read-out: % Ctrl @ 10000 nM
T1 construct: purchased Ambit Biosciences Corp; host or cells: T7 phage in E. coli host derived from BL21
Description: as §1, §2

TEC = target: T2, TEC (Homo sapiens, UniProt P42680); experiment: KinomeScan; assay type: binding; conditions: read-out: % Ctrl @ 10000 nM
T2 construct: host or cells: T7 phage grown in E. coli (BL21-derived)
Description: as §1, §2

PRKCH = target: T3, PRKCH (Homo sapiens, UniProt P24723); experiment: KinomeScan; assay type: binding; conditions: read-out: % Ctrl @ 10000 nM
T3 construct: host or cells: T7 phage in E. coli host derived from BL21
Description: as §1, §2

PHKG2 = target: T4, PHKG2 (Homo sapiens, UniProt P15735); experiment: KinomeScan; assay type: binding; conditions: read-out: % Ctrl @ 10000 nM
T4 construct: host or cells: E. coli host derived from BL21, infected with T7 phage
Description: as §1, §2

PFTAIRE2 = target: T5, PFTAIRE2 (Homo sapiens, UniProt Q96Q40); experiment: KinomeScan; assay type: binding; conditions: read-out: % Ctrl @ 10000 nM
T5 construct: host or cells: E. coli host derived from BL21, infected with T7 phage
Description: as §1, §2

DYRK1B = target: T6, DYRK1B (Homo sapiens, UniProt Q9Y463); experiment: KinomeScan; assay type: binding; conditions: read-out: % Ctrl @ 10000 nM
T6 construct: purchased Ambit Biosciences Corp (KinomeScan); host or cells: T7 phage in E. coli host derived from BL21
Description: as §1, §2

ABL2 = target: T7, ABL2 (Homo sapiens, UniProt P42684); experiment: KinomeScan; assay type: binding; conditions: read-out: % Ctrl @ 10000 nM
T7 construct: host or cells: E. coli (BL21-derived), T7 phage lysate
Description: as §1, §2

ASK1 = target: T8, ASK1 (Homo sapiens, UniProt Q99683); experiment: KinomeScan; assay type: binding; conditions: read-out: % Ctrl @ 10000 nM
T8 construct: host or cells: E. coli host derived from BL21
Description: as §1, §2

[1] = target: T9, RPS6KA3(Kin.Dom.-1-N-terminal) (Homo sapiens, UniProt P51812); experiment: KinomeScan; assay type: binding; conditions: read-out: % Ctrl @ 10000 nM
T9 construct: RPS6KA3(Kin.Dom.-1-N-terminal); host or cells: E. coli host derived from BL21, T7 phage display
Description: as §1, §2

MUSK = target: T10, MUSK (Homo sapiens, UniProt O15146); experiment: KinomeScan; assay type: binding; conditions: read-out: % Ctrl @ 10000 nM
T10 construct: host or cells: T7 phage grown in E. coli host derived from BL21
Description: as §1, §2

FGFR3(G697C) = target: T11, FGFR3(G697C) (Homo sapiens, UniProt P22607, G697C); experiment: KinomeScan; assay type: binding; conditions: read-out: % Ctrl @ 10000 nM
T11 construct: host or cells: T7 phage in E. coli host derived from BL21
Description: as §1, §2

ERK4 = target: T12, ERK4 (Homo sapiens, UniProt P31152); experiment: KinomeScan; assay type: binding; conditions: read-out: % Ctrl @ 10000 nM
T12 construct: purchased Ambit Biosciences Corp; host or cells: T7 phage in E. coli host derived from BL21
Description: as §1, §2

KIT(V559D) = target: T13, KIT(V559D) (Homo sapiens, UniProt P10721, V559D); experiment: KinomeScan; assay type: binding; conditions: read-out: % Ctrl @ 10000 nM
T13 construct: host or cells: T7 phage grown in E. coli host derived from BL21
Description: as §1, §2

DAPK1 = target: T14, DAPK1 (Homo sapiens, UniProt P53355); experiment: KinomeScan; assay type: binding; conditions: read-out: % Ctrl @ 10000 nM
T14 construct: purchased Ambit Biosciences Corp (KinomeScan); host or cells: T7 phage in E. coli host derived from BL21
Description: as §1, §2

ABL1 = target: T15, ABL1 (Homo sapiens, UniProt P00519); experiment: KinomeScan; assay type: binding; conditions: read-out: % Ctrl @ 10000 nM
T15 construct: host or cells: E. coli (BL21-derived), T7 phage lysate
Description: as §1, §2

TLK2 = target: T16, TLK2 (Homo sapiens, UniProt Q86UE8); experiment: KinomeScan; assay type: binding; conditions: read-out: % Ctrl @ 10000 nM
T16 construct: host or cells: E. coli host derived from BL21, T7 phage
Description: as §1, §2

AKT1 = target: T17, AKT1 (Homo sapiens, UniProt P31749); experiment: KinomeScan; assay type: binding; conditions: read-out: % Ctrl @ 10000 nM
T17 construct: host or cells: E. coli (BL21-derived), T7 phage lysate
Description: as §1, §2

MYLK = target: T18, MYLK (Homo sapiens, UniProt Q15746); experiment: KinomeScan; assay type: binding; conditions: read-out: % Ctrl @ 10000 nM
T18 construct: host or cells: T7 phage grown in E. coli host derived from BL21
Description: as §1, §2

AAK1 = target: T19, AAK1 (Homo sapiens, UniProt Q2M2I8); experiment: KinomeScan; assay type: binding; conditions: read-out: % Ctrl @ 10000 nM
T19 construct: host or cells: E. coli (BL21-derived), T7 phage lysate
Description: as §1, §2

IKK-beta = target: T20, IKK-beta (Homo sapiens, UniProt O14920); experiment: KinomeScan; assay type: binding; conditions: read-out: % Ctrl @ 10000 nM
T20 construct: host or cells: T7 phage grown in E. coli host derived from BL21
Description: as §1, §2

PKMYT1 = target: T21, PKMYT1 (Homo sapiens, UniProt Q99640); experiment: KinomeScan; assay type: binding; conditions: read-out: % Ctrl @ 10000 nM
T21 construct: host or cells: T7 phage in E. coli host derived from BL21
Description: as §1, §2

CDC2L2 = target: T22, CDC2L2 (Homo sapiens, UniProt Q9UQ88); experiment: KinomeScan; assay type: binding; conditions: read-out: % Ctrl @ 10000 nM
T22 construct: host or cells: T7 phage in E. coli host derived from BL21
Description: as §1, §2

MLCK = target: T23, MLCK (Homo sapiens, UniProt Q32MK0); experiment: KinomeScan; assay type: binding; conditions: read-out: % Ctrl @ 10000 nM
T23 construct: host or cells: T7 phage grown in E. coli host derived from BL21
Description: as §1, §2

DCAMKL3 = target: T24, DCAMKL3 (Homo sapiens, UniProt Q9C098); experiment: KinomeScan; assay type: binding; conditions: read-out: % Ctrl @ 10000 nM
T24 construct: purchased Ambit Biosciences Corp (KinomeScan); host or cells: T7 phage in E. coli host derived from BL21
Description: as §1, §2

[2] = Acute toxicity (LD0, LD50); assay type: in vivo; conditions: both, mouse, in vivo, po, 7 days
Description: […]. The doses 500, 750, 1000 and 2000 mg/Kg were administered orally. Each group included 5 mice. […] The survived animals were autopsied for asserting the absorption of compound through g.i.t. The LD50 was determined according to the method described in Litchfield and Wilcoxon (J. Pharmacol. Exp. Ther. 1949, 96:99-113).

A549 human lung tumors = experiment: Evaluation of ED50 (lung section and tumor regression studies); assay type: in vivo, nude mice; conditions: Mus musculus, oral route
Description: ED50 values were evaluated based on the lung section and tumor regression studies.

T10 sequence (O15146 24-869): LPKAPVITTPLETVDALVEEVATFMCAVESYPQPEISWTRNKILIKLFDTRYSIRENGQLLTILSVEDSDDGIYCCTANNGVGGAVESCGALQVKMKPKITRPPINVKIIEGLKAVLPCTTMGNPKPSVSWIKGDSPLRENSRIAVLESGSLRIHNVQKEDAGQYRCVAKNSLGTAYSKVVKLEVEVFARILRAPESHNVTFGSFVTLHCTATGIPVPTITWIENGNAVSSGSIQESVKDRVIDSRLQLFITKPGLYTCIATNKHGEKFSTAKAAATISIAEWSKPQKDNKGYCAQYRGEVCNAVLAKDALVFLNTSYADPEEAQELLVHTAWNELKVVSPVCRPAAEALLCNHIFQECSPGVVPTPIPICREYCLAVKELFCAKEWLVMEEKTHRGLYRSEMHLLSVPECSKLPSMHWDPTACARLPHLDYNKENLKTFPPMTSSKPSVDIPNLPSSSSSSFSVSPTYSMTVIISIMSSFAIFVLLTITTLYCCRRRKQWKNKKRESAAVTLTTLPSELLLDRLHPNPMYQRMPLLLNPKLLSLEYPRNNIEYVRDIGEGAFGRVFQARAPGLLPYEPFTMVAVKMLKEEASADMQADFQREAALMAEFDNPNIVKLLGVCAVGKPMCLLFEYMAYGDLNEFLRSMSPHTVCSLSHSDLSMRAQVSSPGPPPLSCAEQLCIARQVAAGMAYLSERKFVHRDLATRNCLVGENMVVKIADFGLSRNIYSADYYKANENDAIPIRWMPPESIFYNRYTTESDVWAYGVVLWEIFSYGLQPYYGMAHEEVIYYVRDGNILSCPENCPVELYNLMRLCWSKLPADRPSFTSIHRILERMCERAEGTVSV
T11 sequence (P22607 23-806 G697C): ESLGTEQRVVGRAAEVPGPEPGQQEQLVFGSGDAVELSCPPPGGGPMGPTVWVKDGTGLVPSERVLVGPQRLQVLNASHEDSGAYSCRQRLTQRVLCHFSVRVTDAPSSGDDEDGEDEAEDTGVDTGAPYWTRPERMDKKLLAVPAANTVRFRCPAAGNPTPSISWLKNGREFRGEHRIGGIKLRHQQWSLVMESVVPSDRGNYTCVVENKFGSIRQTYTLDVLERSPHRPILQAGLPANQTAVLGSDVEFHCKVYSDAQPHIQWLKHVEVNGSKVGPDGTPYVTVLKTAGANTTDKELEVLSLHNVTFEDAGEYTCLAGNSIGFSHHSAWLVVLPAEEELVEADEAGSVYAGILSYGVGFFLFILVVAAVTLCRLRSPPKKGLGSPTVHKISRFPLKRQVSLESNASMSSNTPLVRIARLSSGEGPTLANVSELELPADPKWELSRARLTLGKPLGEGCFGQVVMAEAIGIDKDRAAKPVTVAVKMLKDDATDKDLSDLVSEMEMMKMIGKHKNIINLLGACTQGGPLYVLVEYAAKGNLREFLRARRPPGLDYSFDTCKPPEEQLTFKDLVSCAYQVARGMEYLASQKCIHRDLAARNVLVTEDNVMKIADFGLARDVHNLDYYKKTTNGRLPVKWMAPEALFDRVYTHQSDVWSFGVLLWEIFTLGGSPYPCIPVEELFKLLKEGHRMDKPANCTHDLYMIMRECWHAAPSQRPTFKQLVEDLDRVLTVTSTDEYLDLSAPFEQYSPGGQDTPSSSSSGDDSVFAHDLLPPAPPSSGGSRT
T19 sequence (Q2M2I8 whole entry): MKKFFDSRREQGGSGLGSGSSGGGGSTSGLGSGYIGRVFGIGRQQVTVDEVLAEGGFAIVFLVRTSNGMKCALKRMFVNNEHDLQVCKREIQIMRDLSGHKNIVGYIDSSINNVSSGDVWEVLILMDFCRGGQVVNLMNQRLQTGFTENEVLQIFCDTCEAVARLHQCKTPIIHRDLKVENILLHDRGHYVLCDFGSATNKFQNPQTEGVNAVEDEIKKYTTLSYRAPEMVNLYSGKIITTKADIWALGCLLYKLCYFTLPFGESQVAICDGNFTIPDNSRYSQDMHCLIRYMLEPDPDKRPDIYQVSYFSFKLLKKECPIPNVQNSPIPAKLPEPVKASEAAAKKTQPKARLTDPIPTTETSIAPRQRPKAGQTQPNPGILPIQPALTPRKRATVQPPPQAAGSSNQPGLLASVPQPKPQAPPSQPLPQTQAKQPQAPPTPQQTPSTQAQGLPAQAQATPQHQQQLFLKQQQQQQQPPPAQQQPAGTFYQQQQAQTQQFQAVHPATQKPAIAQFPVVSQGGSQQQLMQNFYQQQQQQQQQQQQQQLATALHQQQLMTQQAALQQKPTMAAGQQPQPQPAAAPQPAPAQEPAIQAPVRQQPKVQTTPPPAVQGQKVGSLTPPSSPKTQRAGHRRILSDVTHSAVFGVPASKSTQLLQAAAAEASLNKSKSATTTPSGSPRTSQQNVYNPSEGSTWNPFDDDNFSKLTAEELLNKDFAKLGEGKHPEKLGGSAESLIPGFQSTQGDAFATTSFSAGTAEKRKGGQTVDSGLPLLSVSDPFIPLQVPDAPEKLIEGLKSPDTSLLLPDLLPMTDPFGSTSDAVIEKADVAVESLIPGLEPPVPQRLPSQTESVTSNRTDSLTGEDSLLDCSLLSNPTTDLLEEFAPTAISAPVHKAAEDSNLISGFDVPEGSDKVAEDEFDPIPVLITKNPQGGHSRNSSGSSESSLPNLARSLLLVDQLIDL
T22 sequence (Q9UQ88 whole entry): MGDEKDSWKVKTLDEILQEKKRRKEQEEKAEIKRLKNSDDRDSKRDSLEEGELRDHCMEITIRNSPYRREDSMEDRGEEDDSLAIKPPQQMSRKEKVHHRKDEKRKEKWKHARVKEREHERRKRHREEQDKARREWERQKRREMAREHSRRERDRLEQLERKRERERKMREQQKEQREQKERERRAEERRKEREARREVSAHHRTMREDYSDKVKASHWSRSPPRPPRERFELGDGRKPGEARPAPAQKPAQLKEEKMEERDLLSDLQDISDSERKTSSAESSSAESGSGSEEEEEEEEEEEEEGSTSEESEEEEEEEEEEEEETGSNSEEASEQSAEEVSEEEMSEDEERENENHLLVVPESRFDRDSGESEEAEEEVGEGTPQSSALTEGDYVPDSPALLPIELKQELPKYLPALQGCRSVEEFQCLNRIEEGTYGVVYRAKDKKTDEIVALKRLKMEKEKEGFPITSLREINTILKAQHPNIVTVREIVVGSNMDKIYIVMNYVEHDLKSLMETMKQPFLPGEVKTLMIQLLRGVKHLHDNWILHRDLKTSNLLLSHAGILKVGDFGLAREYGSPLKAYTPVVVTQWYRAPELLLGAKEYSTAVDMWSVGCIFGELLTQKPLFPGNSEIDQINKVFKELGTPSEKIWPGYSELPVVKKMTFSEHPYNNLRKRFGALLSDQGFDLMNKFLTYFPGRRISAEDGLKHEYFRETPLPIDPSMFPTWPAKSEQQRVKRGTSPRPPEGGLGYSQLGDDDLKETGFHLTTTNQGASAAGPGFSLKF
T1 sequence (P54762 18-984): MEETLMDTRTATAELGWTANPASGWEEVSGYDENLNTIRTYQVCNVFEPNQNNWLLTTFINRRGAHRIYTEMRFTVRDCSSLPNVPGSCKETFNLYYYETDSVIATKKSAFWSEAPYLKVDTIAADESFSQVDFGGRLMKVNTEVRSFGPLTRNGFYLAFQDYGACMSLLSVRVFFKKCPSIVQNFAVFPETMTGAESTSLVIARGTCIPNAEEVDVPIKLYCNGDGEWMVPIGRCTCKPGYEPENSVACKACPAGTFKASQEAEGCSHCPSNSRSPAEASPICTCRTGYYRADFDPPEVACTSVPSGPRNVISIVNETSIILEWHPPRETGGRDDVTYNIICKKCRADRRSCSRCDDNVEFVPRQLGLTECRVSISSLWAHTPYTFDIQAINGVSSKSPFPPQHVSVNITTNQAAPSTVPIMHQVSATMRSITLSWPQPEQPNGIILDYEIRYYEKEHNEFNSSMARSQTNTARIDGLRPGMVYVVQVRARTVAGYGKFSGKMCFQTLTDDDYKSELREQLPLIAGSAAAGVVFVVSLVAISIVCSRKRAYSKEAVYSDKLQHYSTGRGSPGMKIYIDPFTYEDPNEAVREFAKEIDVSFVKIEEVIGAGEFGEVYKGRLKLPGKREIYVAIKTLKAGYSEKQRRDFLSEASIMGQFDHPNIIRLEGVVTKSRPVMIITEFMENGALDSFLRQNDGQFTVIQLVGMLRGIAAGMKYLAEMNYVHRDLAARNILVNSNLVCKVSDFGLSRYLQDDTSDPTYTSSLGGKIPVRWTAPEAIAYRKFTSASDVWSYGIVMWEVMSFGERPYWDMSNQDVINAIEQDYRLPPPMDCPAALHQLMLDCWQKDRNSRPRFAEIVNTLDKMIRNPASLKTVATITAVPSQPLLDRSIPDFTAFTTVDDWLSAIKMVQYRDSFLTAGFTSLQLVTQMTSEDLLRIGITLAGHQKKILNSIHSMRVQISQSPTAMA
T5 sequence (Q96Q40 whole entry): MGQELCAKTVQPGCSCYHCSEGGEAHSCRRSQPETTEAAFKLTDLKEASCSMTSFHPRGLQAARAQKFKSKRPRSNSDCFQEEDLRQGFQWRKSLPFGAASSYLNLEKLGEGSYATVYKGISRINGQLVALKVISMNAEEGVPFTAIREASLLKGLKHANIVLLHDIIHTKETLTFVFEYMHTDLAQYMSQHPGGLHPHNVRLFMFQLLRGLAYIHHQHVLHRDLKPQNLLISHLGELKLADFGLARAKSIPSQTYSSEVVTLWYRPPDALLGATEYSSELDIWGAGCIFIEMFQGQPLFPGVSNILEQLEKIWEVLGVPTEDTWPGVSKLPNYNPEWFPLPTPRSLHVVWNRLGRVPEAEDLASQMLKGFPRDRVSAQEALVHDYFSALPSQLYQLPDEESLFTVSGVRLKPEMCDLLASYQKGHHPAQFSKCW
T9 sequence (P51812 68-327 limits assumed): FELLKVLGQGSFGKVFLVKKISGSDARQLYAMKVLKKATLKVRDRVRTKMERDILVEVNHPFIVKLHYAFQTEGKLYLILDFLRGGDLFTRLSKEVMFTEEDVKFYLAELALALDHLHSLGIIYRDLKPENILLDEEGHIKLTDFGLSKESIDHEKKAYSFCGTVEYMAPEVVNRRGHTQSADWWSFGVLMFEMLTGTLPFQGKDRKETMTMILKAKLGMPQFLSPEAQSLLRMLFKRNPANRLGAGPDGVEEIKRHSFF

For C#Cc1cccc(Nc2ncnc3cc(OC)c(OCCCN4CCOCC4)cc23)c1 [NRC-2694, N-(3-ethynylphenyl)-7-methoxy-6-[3-(4-morpholinyl)propoxy]-4-quinazolinamine], which remaining binding at 10 µM (ERBB2) is on record?
Its remaining binding at 10 µM is 31%.

What about the remaining binding at 10 µM (ERBB4) of the same compound?
The remaining binding at 10 µM was 3.3%.

And the “inhibition of hERG current” value (hERG)?
The value was ~42%.

What about the remaining binding at 10 µM (EPHB1) of the same compound?
Its remaining binding at 10 µM is 72%.

And the remaining binding at 10 µM (TEC)?
Its remaining binding at 10 µM is 90%.

And the remaining binding at 10 µM (PRKCH)?
The remaining binding at 10 µM was 83%.

What about the remaining binding at 10 µM (PHKG2) of the same compound?
The remaining binding at 10 µM was 59%.

What about the remaining binding at 10 µM (PFTAIRE2) of the same compound?
The remaining binding at 10 µM was 71%.

And the remaining binding at 10 µM (DYRK1B)?
The remaining binding at 10 µM was 66%.

What about the remaining binding at 10 µM (ABL2) of the same compound?
Its remaining binding at 10 µM is 43%.

What about the remaining binding at 10 µM (ASK1) of the same compound?
The remaining binding at 10 µM was 100%.

And the remaining binding at 10 µM [1]?
The remaining binding at 10 µM was 94%.

And the remaining binding at 10 µM (MUSK)?
The remaining binding at 10 µM was 100%.

What about the remaining binding at 10 µM (FGFR3(G697C)) of the same compound?
Its remaining binding at 10 µM is 82%.

And the remaining binding at 10 µM (ERK4)?
The remaining binding at 10 µM was 3.7%.

And the remaining binding at 10 µM (KIT(V559D))?
The remaining binding at 10 µM was 17%.

What about the remaining binding at 10 µM (DAPK1) of the same compound?
Its remaining binding at 10 µM is 26%.

What about the remaining binding at 10 µM (ABL1) of the same compound?
Its remaining binding at 10 µM is 67%.

What about the remaining binding at 10 µM (TLK2) of the same compound?
Its remaining binding at 10 µM is 82%.

And the remaining binding at 10 µM (AKT1)?
The remaining binding at 10 µM was 100%.

What about the remaining binding at 10 µM (MYLK) of the same compound?
The remaining binding at 10 µM was 62%.

What about the remaining binding at 10 µM (AAK1) of the same compound?
Its remaining binding at 10 µM is 38%.

What about the remaining binding at 10 µM (IKK-beta) of the same compound?
The remaining binding at 10 µM was 51%.

What about the remaining binding at 10 µM (PKMYT1) of the same compound?
The remaining binding at 10 µM was 74%.

What about the remaining binding at 10 µM (CDC2L2) of the same compound?
Its remaining binding at 10 µM is 37%.

And the remaining binding at 10 µM (MLCK)?
Its remaining binding at 10 µM is 77%.

What about the remaining binding at 10 µM (DCAMKL3) of the same compound?
Its remaining binding at 10 µM is 14%.

What about the LD0 [2] of the same compound?
The LD0 was 2000 mg/kg.

And the ED50 (A549 human lung tumors)?
The ED50 was 6.3 mg/kg.
